Source: patent US20220039907A1, “Inhibiting Post-Biopsy Inflammation and Metastasis” (The Board of Regents of the University of Oklahoma, priority 2020, published 2022)

Tests used:
[1] = test system: bone marrow-derived primary Mϕ; test: PGE2-mediated arginase expression in bone marrow-derived primary Mϕ with EP inhibitors; type: cell-based; details: Mϕ incubated with PGE2 and selective EP inhibitor
Description: (§1) To further identify the biological consequences of abundant PGE2, the bone marrow-derived primary Mϕ was incubated with 10 μM PGE2. […] PGE2 exerts its action through 4 integral membranous E prostanoid receptors (EP1, EP2, EP3, and EP4). The Mϕ was incubated with PGE2 and selective pharmacologic inhibitors against respective prostaglandin E2 receptor (EP2).

[2] = test system: VCAM1 expression in End.3; test: PGE2-induced VCAM1 expression in End.3 with selective EP antagonists; type: cell-based, murine; details: End.3 cells, PGE2 stimulated
Text: (§2) Inflamed vessels serve as a gateway for MSCs to enter tissue parenchyma. VCAM1 engagement to integrin α4β1 (very late antigen 4; VLA4) mediates shear resistant adhesion of MSCs to the vessel wall that leads to their trans-endothelial migration. […] Similarly, VCAM1 vascular expression was elevated in PGE2 treated mice compared to untreated ones (FIG. 10(B)). Accordingly, shear resistant adhesion of human MSCs was 2-fold higher to PGE2 treated HMVECs than to untreated ones; however, VCAM1 neutralizing antibody abrogated PGE2-induced shear resistant adhesion of MSCs (FIG. 10(C)). […] The white circle in the left panel of FIG. 10(D) indicates infiltrating GFP+ MSCs, and the inset in the upper left corner is a close-up image of the corresponding location. Since VLA4 is the ligand for VCAM1, and conformational change of VLA4 is prerequisite for binding to VCAM1, ligand binding assay using FITC-LDV peptide (which selectively binds to an active form of VLA4) was performed.
PGE2 exerts its action through the binding to 4 types of prostaglandin E receptor (EP1, 2, 3, and 4), which ubiquitously express in various cell types. Human endothelial cells express all 4 types of EP receptors. […] Therefore, without wishing to be bound by theory, an explanation of biopsy-induced metastasis is that systemic availability of PGE2 leads to an elevation of VCAM1 expression in the pulmonary vessels through the EP4 receptor, resulting in increased MSCs tissue infiltration that initiates a provisional PMN in the perivascular space of the lungs (see overview model in FIG. 8).

[3] = test system: Py230mCherry tumor; test: Biopsy-induced lung metastasis in Py230mCherry tumor bearing mice, oral COX2/EP2 inhibitors; type: in vivo; details: daily following biopsy, n=15 per group
[4] = test system: 4T1-Luc tumors; test: Organ metastasis-free survival of 4T1-Luc tumor mice with or without biopsy, oral ibuprofen; type: in vivo
Description: To experimentally explore the hypothesis that inhibition of PGE2 biosynthesis by NSAIDs diminishes biopsy-induced metastasis, 4T1-Luc tumors were biopsied or left unbiopsied (n=10 per group) once tumor size reached 100 mm^3. One day later, daily oral ibuprofen (non-selective COX inhibitor) or saline was started (50 mg/kg) for 9 days, until the day before mastectomy. Mice were then monitored for metastasis over the next 3 months. […] In contrast, cellularity and COX2 expression in the biopsy wound were far less in mice that were treated with ibuprofen (FIG. 12(B)).

[5] = test system: PGE2 level in biopsied mouse tumors; test: PGE2 level in biopsied mouse tumors after oral ibuprofen; type: in vivo; details: oral administration; to a level equal to the unbiopsied tumor
[6] = test system: primary mouse MSCs; test: Biopsy-WF induced PGE2 release from primary mouse MSCs; type: cell-based; details: primary mouse MSCs treated with biopsy-WF
[7] = test system: py230 BC cells; test: Experimental metastasis model: intravenous PGE2 priming followed by py230 BC cell injection; type: in vivo; details: intravenous PGE2 at level equal to post-biopsy blood, versus untreated mice
Text: Wounding triggers a repair cascade by forming a fibrin matrix containing a series of chemo-attractants (e.g., TGF-β, bFGF, PDGF, TNFα, and EGF) that recruit MSCs from bone marrow to the injured site. MSCs produce innumerable growth factors, cyto-chemokines, and metabolites that promote angiogenesis, immunomodulation, and ECM remodeling in order to repair the damaged tissue. […] MSC2 is characterized by a high level of PGE2 release, a potent vasodilater. […] Given the high interstitial pressure coupled with insufficient lymphatic drainage due to superficial lymphatic vessels in solid tumors, soluble factors seep into the circulation from the tumor. Accordingly, PGE2 levels in the blood were 3 times higher in the biopsied mice compared to that in mice bearing unbiopsied tumors or mice without tumor burden (FIG. 6(C)). PGE2 is enzymatically converted from arachidonic acid by the rate-limiting enzyme Cyclooxygenase (COX). COX2 expression is induced by inflammatory stimuli, whereas COX1 is constitutive. […] However, the biologic mechanism by which circulating PGE2 promotes metastasis has heretofore remained unknown.
PGE2-induced hyper-permeation sites indicated by leakage of 40 kDa FITC-dextran (green) coincided with accumulation of SSEA4^+ MSCs (red), a key component of the PMN^51 (FIG. 9(C)).

[8] = test system: pulmonary vessels; test: Pulmonary vessel permeability (Evans Blue leakage) after intravenous PGE2; type: in vivo, mice; details: intravenous injection, versus saline
[9] = test system: human microvessel endothelial cells (HMVECs); test: PGE2 induction of VCAM1 mRNA in HMVECs; type: cell-based; details: PGE2 level equivalent to post-biopsy blood
Text: as §2

[10] = test system: murine endothelial cell line (End.3); test: PGE2 induction of VCAM1 mRNA in End.3; type: cell-based; details: End.3, PGE2 level equivalent to post-biopsy blood
Text: as §2

[11] = test system: VCAM1 vascular expression; test: VCAM1 vascular expression in PGE2 treated mice; type: in vivo; details: PGE2 treated versus untreated mice
Text: as §2

[12] = test system: HMVECs; test: Shear resistant adhesion of human MSCs to HMVECs; type: cell-based; details: PGE2 treated HMVECs versus untreated
Text: as §2

[13] = test system: bone marrow-derived primary Mϕ; test: Quantitative PCR of M2/M1 marker mRNAs in bone marrow-derived primary Mϕ incubated with PGE2; type: cell-based; details: 10 μM PGE2
Description: as §1

[14] = test system: lung; test: Adoptive transfer of GFP+ MSCs into PGE2 pre-treated mice; type: in vivo
Text: as §2

## COc1ccc(Br)cc1S(=O)(=O)NC(=O)/C=C/c1ccccc1Cc1ccc2ccccc2c1 [L-798106]
[1]
  PGE2-mediated arginase expression: no inhibitory effect

## COc1ccc2cc(OCC3(C(=O)O)CN(C(=O)c4ccc(F)cc4)C3)ccc2c1 [PF-04418948]
[2]
  PGE2-induced VCAM1 expression: no effect
[1]
  PGE2-mediated arginase expression: abrogated
[3]
  biopsy-induced lung metastasis: significantly reduced

## Cc1cc(Cl)ccc1S(=O)(=O)NC[C@H]1C2CCC(CC2)[C@@H]1/C=C\CCCC(=O)O [0N08711]
[2]
  PGE2-induced VCAM1 expression: no effect
[1]
  PGE2-mediated arginase expression: no inhibitory effect

## CC(C)Cc1ccc(C(C)C(=O)O)cc1 (stereo not drawn) [ibuprofen]
[4]; biopsied 4T1-Luc mice, daily oral 50 mg/kg for 9 days
  onset of metastasis: delayed onset
[4]; biopsied 4T1-Luc mice, daily oral 50 mg/kg for 9 days, monitored 3 months, biopsied without drug 6/10
  metastasis incidence: 2/10
[4]; histopathology of mastectomized tumors, versus untreated biopsied
  cellularity and COX2 expression in the biopsy wound: far less
[4]; unbiopsied 4T1-Luc mice, daily oral 50 mg/kg
  effect on metastasis in mice that did not receive biopsy: no significant effect
[5]
  PEG2 level in biopsied mouse tumors: significantly reduced
[6]
  biopsy-WF induced PGE2 release: equally abrogated

## CCCCC[C@H](O)/C=C/[C@H]1[C@H](O)CC(=O)[C@@H]1C/C=C\CCCC(=O)O [PGE2, prostaglandin E2]
[7]
  pulmonary metastasis of py230 BC cells: enhanced pulmonary metastasis
[8]
  vessel permeability (Evans Blue leakage into the lungs): increased vessel permeability
[9]
  VCAM1 mRNA expression: induce
[10]
  VCAM1 mRNA expression: induce
[11]
  VCAM1 vascular expression: elevated
[12]
  shear resistant adhesion of human MSCs: 2 fold
[13]
  M1 marker mRNAs (iNOS and TNFα): decrease
  M2 marker mRNA expression (arginase, YM1, YM2): increase
[14]
  infiltration of GFP+ MSCs: preferential infiltration to perivascular space

## CCCCc1nn(-c2ccccc2C(F)(F)F)c(=O)n1Cc1ccc(-c2ccccc2S(=O)(=O)NC(=O)c2sccc2C)cc1 [L-161982]
[2]
  PGE2-induced VCAM1 expression: blocked
[1]
  PGE2-mediated arginase expression: no inhibitory effect

## COc1ccc2c(c1)c(CC(=O)O)c(C)n2C(=O)c1ccc(Cl)cc1 [indomethacin]
[6]
  biopsy-WF induced PGE2 release: equally abrogated
